#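 Assay format: 96-well plates, 48-hour exposure. The concentration for 50% growth inhibition is given as GI50.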 Active and inactive are the calls of the source. Rule as the data show it: active = GI50 up to about 1.1 µM and inactive = higher.
# How the values were obtained:
# Assay in all cases: NCI-60 cell line screen, 48 h
# [1] = system: ACHN
# [2] = system: MDA-N
# [3] = system: NCI-H226
# [4] = system: M14
# [5] = system: MDA-MB-435
# [6] = system: SF-295
# [7] = system: MDA-MB-231
# [8] = system: IGROV-1
# [9] = system: SF-268
# [10] = system: HOP-92
# [11] = system: SNB-75
# [12] = system: TK-10
# [13] = system: SK-MEL-28
# [14] = system: NCI-H23
# [15] = system: UACC-257
# [16] = system: SW-620
# [17] = system: HCT-15
# [18] = system: COLO 205
# [19] = system: RPMI-8226
# [20] = system: CCRF-CEM
Structure (SMILES),GI50 [1],GI50 [2],GI50 [3],GI50 [4],GI50 [5],GI50 [6],GI50 [7],GI50 [8],GI50 [9],GI50 [10],GI50 [11],GI50 [12],GI50 [13],GI50 [14],GI50 [15],GI50 [16],GI50 [17] [µM],GI50 [18],GI50 [19],GI50 [20]
Cc1cc(=O)oc2cc(OCc3c(F)cccc3Cl)ccc12,79.8 µM (inactive),2.3 µM (inactive),33.3 µM (inactive),9.35 µM (inactive),1.78 µM (inactive),17.5 µM (inactive),4.07 µM (inactive),9.46 µM (inactive),21.4 µM (inactive),10.5 µM (inactive),9.02 µM (inactive),> 100 µM (inactive),> 100 µM (inactive),> 100 µM (inactive),78.5 µM (inactive),–,–,–,–,–
O=C(O)C1OC1C(=O)O (stereo not given),> 100 µM (inactive),> 100 µM (inactive),> 100 µM (inactive),> 100 µM (inactive),> 100 µM (inactive),> 100 µM (inactive),> 100 µM (inactive),> 100 µM (inactive),> 100 µM (inactive),> 100 µM (inactive),> 100 µM (inactive),> 100 µM (inactive),> 100 µM (inactive),> 100 µM (inactive),> 100 µM (inactive),> 100 µM (inactive),> 100,> 100 µM (inactive),> 100 µM (inactive),–
Cc1cccc(C)c1NC(=O)C(=O)CC(=O)c1sc(Nc2c(C)cccc2C)nc1C,> 100 µM (inactive),> 100 µM (inactive),> 100 µM (inactive),> 100 µM (inactive),> 100 µM (inactive),> 100 µM (inactive),> 100 µM (inactive),> 100 µM (inactive),> 100 µM (inactive),> 100 µM (inactive),22.7 µM (inactive),> 100 µM (inactive),–,> 100 µM (inactive),> 100 µM (inactive),> 100 µM (inactive),> 100,> 100 µM (inactive),> 100 µM (inactive),> 100 µM (inactive)
COc1cc(C2c3cc4c(cc3OC(NN=C(C)C)C2C)OCO4)cc(OC)c1O (stereo not given),–,3 µM (inactive),> 100 µM (inactive),22.6 µM (inactive),1.24 µM (inactive),18.9 µM (inactive),27.9 µM (inactive),15.7 µM (inactive),31.5 µM (inactive),62.4 µM (inactive),3.66 µM (inactive),25.4 µM (inactive),11.5 µM (inactive),26.7 µM (inactive),89.3 µM (inactive),6.93 µM (inactive),7.43,30.9 µM (inactive),6.21 µM (inactive),–
O=C(c1cccs1)N(Cc1cccnc1)C(=S)N(Cc1cccnc1)C(=O)c1cccs1,> 100 µM (inactive),33.4 µM (inactive),> 100 µM (inactive),91.2 µM (inactive),> 100 µM (inactive),32.2 µM (inactive),> 100 µM (inactive),–,35.6 µM (inactive),> 100 µM (inactive),37.8 µM (inactive),34 µM (inactive),> 100 µM (inactive),> 100 µM (inactive),> 100 µM (inactive),> 100 µM (inactive),> 100,> 100 µM (inactive),–,> 100 µM (inactive)
CC1=NN(c2cc(Cl)c(S(=O)(=O)O)cc2Cl)C2(C1)C(Cl)C(=O)N2c1nc2ccccc2s1 (stereo not given),> 100 µM (inactive),> 100 µM (inactive),53.5 µM (inactive),> 100 µM (inactive),84.3 µM (inactive),–,42.6 µM (inactive),35 µM (inactive),> 100 µM (inactive),> 100 µM (inactive),> 100 µM (inactive),68.5 µM (inactive),> 100 µM (inactive),91 µM (inactive),> 100 µM (inactive),> 100 µM (inactive),> 100,> 100 µM (inactive),79.3 µM (inactive),30.3 µM (inactive)
CCCc1nc(Cl)c(Cl)c(Cl)n1,–,33.8 µM (inactive),36.6 µM (inactive),25.4 µM (inactive),20.1 µM (inactive),> 60.4 µM (inactive),19.3 µM (inactive),17.4 µM (inactive),11.9 µM (inactive),21 µM (inactive),4.28 µM (inactive),> 71.9 µM (inactive),56.5 µM (inactive),18.7 µM (inactive),32.7 µM (inactive),14.8 µM (inactive),15.8,25.4 µM (inactive),–,8.81 µM (inactive)
CC(C)CCNC(=O)c1ccc(CNC(=O)/C=C/c2ccc3ccccc3c2)cc1,> 100 µM (inactive),> 100 µM (inactive),> 100 µM (inactive),46.3 µM (inactive),> 100 µM (inactive),> 100 µM (inactive),> 100 µM (inactive),–,> 100 µM (inactive),> 100 µM (inactive),> 100 µM (inactive),–,> 100 µM (inactive),> 100 µM (inactive),> 100 µM (inactive),> 100 µM (inactive),> 100,> 100 µM (inactive),> 100 µM (inactive),> 10 µM (inactive)
COC1=CC(=O)C(O)=C(C[C@@]2(C)[C@@H]3CCC[C@H](COC(=O)CCCCCNC(=O)OC(C)(C)C)[C@@]3(C)CC[C@@H]2C)C1=O,3.32 µM (inactive),> 10 µM (inactive),8.45 µM (inactive),6.56 µM (inactive),> 10 µM (inactive),5.28 µM (inactive),> 10 µM (inactive),3.61 µM (inactive),5.85 µM (inactive),3.9 µM (inactive),5.11 µM (inactive),> 10 µM (inactive),8.63 µM (inactive),–,> 10 µM (inactive),6.34 µM (inactive),–,4.08 µM (inactive),3.54 µM (inactive),1.09 µM (active)
O=C1Nc2ccccc2/C1=N/NC(=S)N1CCCCCC1,0.824 µM (active),2.8 µM (inactive),1.36 µM (inactive),0.684 µM (active),1.26 µM (inactive),1 µM (active),0.56 µM (active),0.187 µM (active),0.322 µM (active),1.82 µM (inactive),1.69 µM (inactive),1.8 µM (inactive),1.87 µM (inactive),1.21 µM (inactive),2.54 µM (inactive),0.594 µM (active),0.45,1.03 µM (active),0.824 µM (active),–
CC(C)(C)c1cc(C(C)(C)C)c2sc(=O)oc2c1O,12.1 µM (inactive),13.5 µM (inactive),20.2 µM (inactive),17.5 µM (inactive),12.4 µM (inactive),11.4 µM (inactive),18.4 µM (inactive),14.2 µM (inactive),13.6 µM (inactive),16.8 µM (inactive),13.7 µM (inactive),11.8 µM (inactive),16.3 µM (inactive),–,5.71 µM (inactive),–,12.4,18.8 µM (inactive),21.3 µM (inactive),18.8 µM (inactive)
Oc1c(C2=N[C@H]3CCCC[C@@H]3N2)ccc2ccccc12,> 100 µM (inactive),> 100 µM (inactive),> 100 µM (inactive),> 100 µM (inactive),> 100 µM (inactive),–,> 100 µM (inactive),> 82 µM (inactive),> 100 µM (inactive),> 100 µM (inactive),> 69.2 µM (inactive),> 100 µM (inactive),> 100 µM (inactive),> 100 µM (inactive),> 100 µM (inactive),> 100 µM (inactive),> 100,> 100 µM (inactive),> 100 µM (inactive),> 100 µM (inactive)
Nc1nc(Cl)cc(Nc2cc(Cl)cc(Cl)c2)n1,24.9 µM (inactive),23 µM (inactive),18.7 µM (inactive),19.3 µM (inactive),20.1 µM (inactive),21.1 µM (inactive),20 µM (inactive),18.7 µM (inactive),20.8 µM (inactive),21.5 µM (inactive),21.7 µM (inactive),20.4 µM (inactive),–,23.1 µM (inactive),18.5 µM (inactive),22.4 µM (inactive),20.7,22.4 µM (inactive),33 µM (inactive),28.5 µM (inactive)
COP(=O)(OC)[C@@](O)(c1ccccc1)[C@@H](O)[C@@H](O)c1ccccc1,> 100 µM (inactive),85.3 µM (inactive),> 100 µM (inactive),> 100 µM (inactive),> 100 µM (inactive),> 100 µM (inactive),> 100 µM (inactive),87.5 µM (inactive),> 100 µM (inactive),> 100 µM (inactive),> 100 µM (inactive),> 100 µM (inactive),> 100 µM (inactive),> 100 µM (inactive),> 100 µM (inactive),44.7 µM (inactive),> 100,> 100 µM (inactive),–,21.7 µM (inactive)
CN(C)C(=S)N/N=C\C(=N/NC(=S)N(C)C)c1ccccc1,3.72 µM (inactive),> 61.8 µM (inactive),4.61 µM (inactive),5.51 µM (inactive),34.9 µM (inactive),4.93 µM (inactive),19.3 µM (inactive),3.7 µM (inactive),4.14 µM (inactive),3.91 µM (inactive),13.4 µM (inactive),6.87 µM (inactive),7.16 µM (inactive),9.46 µM (inactive),> 23.4 µM (inactive),4.53 µM (inactive),2.71,4.03 µM (inactive),4.68 µM (inactive),–

# Source: ChEMBL document CHEMBL1201862, “PubChem BioAssay data set” (2004)
